# Data as given in PMC9619220 (Computational and Structural Biotechnology Journal, 2022).
# Key:
# [1] = molecular target: T1, TgPDE1 (Toxoplasma gondii, UniProt A0A7J6K721); assay: colorimetric PDE assay on immunoprecipitated enzyme, dose-response (cAMP hydrolysis; […] for cGMP); type: biochemical
# T1 construct: gene TGRH88_036470; native smHA-tagged TgPDE1 immunoprecipitated from tachyzoites
# [2] = molecular target: T2, TgPDE2 (Toxoplasma gondii, UniProt A0A7J6KGW2); assay: colorimetric PDE assay, single concentration ([…]), partial inhibition of cAMP hydrolysis; type: biochemical
# T2 construct: gene TGRH88_018390; native smHA-tagged TgPDE2 immunoprecipitated from tachyzoites
# [3] = molecular target: T1, TgPDE1; assay: colorimetric PDE assay, single concentration ([…]), moderate effect; type: biochemical
# [4] = molecular target: T1, TgPDE1; assay: colorimetric PDE assay on immunoprecipitated enzyme, dose-response (cAMP hydrolysis); type: biochemical
# [5] = substrate: [H][C@@]12COP(=O)(O)O[C@@]1([H])[C@@H](O)[C@H](n1cnc3c(=O)[nH]c(N)nc31)O2; assay: Michaelis-Menten kinetics, colorimetric PDE assay (Km); type: biochemical, Toxoplasma gondii
molecule,measurement,setting,value
"CC(C)c1n[nH]c2c(=O)[nH]c(Cc3ccccc3)nc12 [BIPPO, 5-benzyl-3-isopropyl-1H-pyrazolo (4,3-d) pyrimidin-7(6H)-one]",IC50,[1],0.31 µM
"CC(C)Cn1c(=O)n(C)c(=O)c2[nH]cnc21 [IBMX, 3-isobutyl-1-methylxanthine]","colorimetric PDE assay, single concentration (100 μM), partial inhibition of cAM",[2],hydrolysis of cAMP by TgPDE2 was sensitive to partial inhibition by IBMX but to none of the other drugs
same,"colorimetric PDE assay, single concentration (100 μM), moderate effect",[3],The effect of IBMX on TgPDE1 was moderate.
"CCCOc1ccccc1-c1nc2nn[nH]c2c(=O)[nH]1 [zaprinast, 1,4-Dihydro-5-(2-propoxyphenyl)-7H-1,2,3-triazolo (4,5-d) pyrimidin-7-one]",IC50,[4],1.49 µM
"TgPDE1 (Toxoplasma gondii) (protein, native smHA-tagged TgPDE1 immunoprecipitated from tachyzoites) MRLREHSLLLCVDAMSRDSPVASPAHSGVFGPSADAEVSEVFSLPSLSAVPGAASASSLSRENSLVSSRRASPSVSPPAGSPLWRLVRRCGQGEGERENVERCRLRERREECGAARRGPPASAATSDCSCPSAGDRRRVQSRRRRARTFQGRSFCGNHVSTEAEREGETEGEEETEGEEGREEYDSKRRGRLARRLGRRFVIAAAERGRKREGEETIVLRGNQGECWQEAQRTADSPDCSSSSVCCFGGSCSTASQCCACMRLASVSCPSPRSSFSTFHCSLPAVSSASAAFVCPRESPGSDSNSSPSCASSRGFSPSSPKATVSSSRPSSSSASPLRSSLSAPSGLFPVGSGCSSDVCVSVPLPAMFRGCRVHSSAPSSRTEQGTALLTGAPPSANELEAASAMANPTNSSRFSRVKTVSFATLSECGSSHISRRSDSASEPEAEREKPGLCSMRVARRESSPAARSPGRQSERRGTDSSCTSLPQRSDRAGRDRVGSRGSAEQRSSTSSRRVSDHSRAEAGLWSAGLGDSGASLEPDLESRSAFLRRCRARLAAARRKVCQAFQSLAEHDLVFRMKEDLAQMRHESSLRSVFADGCRERSGVEMSERTRLSVGGGTGRHLSVGTSTHKEGSTHKEGSEKERIRDGGSASPSTHLSRSGSGDVILRRFPLKFVDRGLEDLFADNINRWMATRLLMGVLSLVVTSVMWPLMAWSFNLLDAFNHSEPLGILFHINMAVTVFVAVLFIVTKRCRHLAEHAELIADGGTFLVVTIWGIWNTTASYILEHSYVQDVIGSAYPMHPADAPISLEKTSAWSTSLEASSAVAYLYGLLLIVQLDVVYPSRTRRTWQVHLMFFGFSTASIVIRGALNPDFVPVPFVVIRALTYLMLTVFLFIGRHATELQQRHTFYNWLTTRKRMDRLESDLKRQREKVKVSTAVEQLVHMVKHCMESCQTVESEVGSELHVSYRSLLIDCHQTLSRCLSILTHTSDLYTVQFGDLDSDAHRDIIQAFLNNHNSSPADWTRVTTAAYTRGVEDGCWSASDASSEAKSGDLGTPFAGSEALALVRRDSSHSWASSRGASAWPIQANWTGTLDGVHVHAFLHAVPEACGGAATPEHDGLRGEGLGDLGRASPRRQAGRQLTRLDEGRERDSEPEDLTDDGDSAEPPKNAASETEEKVSVPDNGRKTPTQALGEMKPGLTSKGLHDTLARVRASTHREVESRGRERRGDSAPCSSPSQRLTPQSLADFQARLRYEALIKLVHTSPRTPELSLGIPVSEEAARDWNFDCLRHAQLSPTPLVDVGYALLHRTSEDLRLPPDVVLRFLTAVEIQYNHVPYHNCIHGLMVAQKMVALTEVLELSQSIGSRDRALVVVAGLCHDIGHPGRNNALFINALDPVAVLYNDKSVLENYHSCLTFKTLELPDCDIFFSLRTKDYHMVRSLIIDLILATDMKNHFETVSRFRVRRNALDFDLSSEEDFWFAVKIIMKCADLSHCSVPWSQHFQWCQRLSVEFYDQGDEEVARHLPMSPLCDREKHSEVAKSQLGFMSFVAVPLFEELMAIDGTGNIEKYCISVMKTNASHWEALSSAAVPVPLLGEAPSPDVAPPLLHLIDGSGAAAVHPGSKAAEIANRYASSTVTTLDLTCLVYRTQLNRARRSSQQSGRRVSEGTSA",Km,[5],18 µM
